According to patent publication US20060052298A1, “Use of stable glutamine derivatives to improve drug absorption” (priority 2002, published 2006):
Where two headings read alike, the source gives them in different places. Each block holds one compound with its values, some of them ahead of it. Peptide text beside a SMILES is read from it.

Key:
[1] = 2-hour (peak) antiretroviral drug levels in blood; settings: for number of patients whose AZT levels did not improve (of eight): 14 patients taking AZT; for number of patients who did not increase their D4T levels / number of patients with an increase in their D4T levels: 15 patients on D4T; for number of patients whose 3TC levels did not improve / number of patients whose 3TC levels improved with therapy: 18 patients on 3TC; for drug levels improved, all ARV drugs including NNRTI and PI / mean percent improvement in antiretroviral drug levels / peak paired NRTI levels improved: after 7 days of study drug; for concentration at 2 h: blood, po, mean 2-hour drug level, oral ARV therapy
Text: HUV positive patients on therapy presenting at the Hospital Sao Jose with diarrhea (≧3 stools/day×14 days) and wasting (loss of ≧10% of their body weight) from March 2001 to April 2002, were invited to participate. After informed consent, patients were assigned to one of four equi-nitrogenous blinded study groups including glycine controls (FIG. 1). Group A received 46 gm of oral glycine/day (Spectrum, Gardena, Calif.). Group B received 30 gm of oral glutamine/day (Cambridge Neutraceuticals, Cambridge, Mass.) and 15 gm of glycine, Group C received 4 grams alanyl-glutamine (Degussa/Creanova, Parsippany, N.J.) and 42 gm of glycine and Group D received 44 gm of alanyl-glutamine (Ala-Gln). The 44 gm alanyl-glutamine dose was calculated to contain equimolar glutamine to 30 gm of glutamine, and glycine was added to glutamine and low dose alanyl-glutamine groups to equalize the amount of nitrogen received by all participants.
Antiretroviral drug levels were determined at Tibotec-Virco, Mechelen, Belgium. Peak values were determined for each drug, and drug level ranges supplied by the manufacturer were used to define low levels. Viral genotype was determined by DNA sequencing at Visible Genetics, Suwanee, Ga. […] Two-tailed statistical analyses for comparison of paired values included Student's t-test and ANOVA and expressed as […] the standard deviation. Chi-square test or Fisher Exact test were used to compare proportions.

[2] = tested on: HIV positive patients with diarrhea and wasting; test: Clinical response by diarrhea frequency and consistency in AIDS patients with diarrhea and wasting; format: in vivo, human; settings: 7 days; high dose Ala-Gln 44 gm/day; glycine controls 46 gm/day
Text: Patients were asked daily about the frequency and consistency of their diarrhea and other gastrointestinal complaints including anorexia, vomiting, and abdominal cramping. Changes in frequency of diarrhea was scored as 0 if the total number of stools in the second half of the 9-day study was less than 2 fewer (or greater) than the number in the first half of the study (including the 2 days before study treatment was started); scored as − or +1 if stool frequencies were reduced or increased by 2 to 3, respectively; and − or +2 if the frequencies were reduced or increased by >3, respectively. In addition, consistencies were graded as liquid, soft or formed and scored as 0, 1 or 2 respectively and changes were added to the frequency scores above. Intestinal permeability was measured by urinary excretion of lactulose, mannitol and their ratio as previously described (Lima et al., Am J Gastroenterol 1997; 92(10):1861-1866). Lactulose and mannitol in urine was determined by high performance liquid chromatography (HPLC) and at Great Smokies Diagnostic Laboratory, Asheville, N.C.

[3] = compared with glutamine; cited from earlier work
[4] = tested on: small intestinal epithelial crypt cells (line IEC-6); test: IEC-6 cell migration after wounding (restitution model); format: cell-based; settings: IEC-6 cells, 2.5 mmol/liter
Text: In 1992, McCormack et al. established a model to study the process of cell migration involved in the early restitution of mucosal erosion. […] This model system is used in the present invention in order to show the important effect of stable glutamine derivatives on intestinal epithelial restitution. To investigate the ability of glutamine and stabilized glutamine derivatives to enhance the healing of mucosal tissues, a model system based on the migration of small intestinal epithelial crypt cells (line IEC-6) was used. The small epithelial crypt cell line (IEC-6 cells) was obtained from the American Type Culture Collection (Rockville, Md.). The medium consisted of Dullbecco's modified Eagle medium (DMEM) with 5% heat-inactivated FBS and 10 μg insulin and 50 μg gentamicin sulfate per milliliter. For the experiments, the cells were taken up with 0.25% trypsin plus 2.65 mM EDTA and plated at 6.25×10^4 cell/cm^2 in 35 mm dishes thinly coated with Matrigel according to the manufacturer's instructions. The cells were fed every other day. To initiate migration, the cell layer was scratched with a single razor blade cut to approximately 27 mm in length. The scratch began at the diameter of the dish and extended over an area 7 to 10 mm wide. After the scratch, the cells were washed twice with sterile PBS. Then, medium containing no supplemental substances or medium containing glutamine or alanyl-glutamine (2.5 mmol/liter) was replaced, and the dishes were returned to the incubator. The experiments were carried out in triplicate. After 6 hours, 8 hours, and 24 hours, the dishes were removed from the incubator, and photographed using an inverted phase contrast microscope attached with camera The migration cells in five contiguous 0.1-mm squares were counted at ×100 magnification beginning at the scratch line and extending as far out as the cells had migrated. The counting was done in the area of the highest migration rate by means of an eyepiece reticle.

[5] = tested on: salt and water absorption; settings: compared with glucose; cited from earlier work
[6] = tested on: intestinal permeability; settings: over 28 days, cited from earlier work
[7] = high dose Ala-Gln, control group
[8] = high dose Ala-Gln, Gln, glycine
[9] = high dose Ala-Gln 44 gm/day, Gln 30 gm/day (+15 gm glycine), glycine 46 gm/day
[10] = high dose Ala-Gln 44 gm/day, Gln 30 gm/day (+15 gm glycine), glycine controls 46 gm/day
[11] = low dose Ala-Gln 4 grams/day (+42 gm glycine)
[12] = study patients with diarrhea and wasting
[13] = all study groups together, 18 on 3TC, 15 on D4T, 14 on AZT
[14] = human, controls without diarrhea or wasting
[15] = human, study patients with diarrhea and wasting

SMILES: NCC(=O)O [glycine, reference compound]
- number of patients whose AZT levels did not improve (of eight) [1, 7]: half
- number of patients who did not increase their D4T levels [1, 8]: 2
- number of patients whose 3TC levels did not improve [1, 8]: 3
- number of patients whose 3TC levels improved with therapy [1, 8]: 2
- drug levels improved, all ARV drugs including NNRTI and PI [1, 9]: 20%
- mean percent improvement in antiretroviral drug levels [1, 10]: −32%
- peak paired NRTI levels improved [1, 10]: 15.4%
- patients improved (diarrhea frequency and consistency) [2]: 38%

SMILES: C[C@H](N)C(=O)N[C@@H](CCC(N)=O)C(=O)O [Ala-Gln, alanyl-glutamine] (H-Ala-Gln-OH)
- stability in acidic water solutions [3]: much more stable
- number of patients whose AZT levels did not improve (of eight) [1, 7]: 1
- number of patients whose AZT levels did not improve (of eight) ([1]; low dose Ala-Gln): 3
- number of patients with an increase in their D4T levels ([1]; high dose Ala-Gln): 3
- number of patients who did not increase their D4T levels [1, 8]: 1
- number of patients who did not increase their D4T levels ([1]; low dose Ala-Gln): 2
- number of patients with an increase in their D4T levels ([1]; low dose Ala-Gln): 3
- number of patients whose 3TC levels did not improve [1, 8]: none
- number of patients whose 3TC levels improved with therapy [1, 8]: 2
- number of patients whose 3TC levels did not improve ([1]; low dose Ala-Gln): 3
- number of patients whose 3TC levels improved with therapy ([1]; low dose Ala-Gln): 4
- drug levels improved, all ARV drugs including NNRTI and PI [1, 9]: 63%
- mean percent improvement in antiretroviral drug levels [1, 10]: 113%
- peak paired NRTI levels improved [1, 10]: 75%
- drug levels improved, all ARV drugs including NNRTI and PI [1, 11]: 50%
- mean percent improvement in antiretroviral drug levels [1, 11]: 8%
- peak paired NRTI levels improved [1, 11]: 55%
- cell migration compared to control ([4]; 6 hours, 8 hours, and 24 hours after the scratch): significantly enhanced cell migration
- cell migration increase related to control ([4]; 8 hours after the scratch): 107%
- cell migration increase related to control ([4]; 24 hours after the scratch): 173%
- enhancement of cell migration, more than glutamine ([4]; after 6 hours): 46%
- enhancement of cell migration, more than glutamine ([4]; after 8 hours): 55%
- patients improved (diarrhea frequency and consistency) [2]: 89%
- drive of salt and water absorption [5]: comparable to, if not better, than glucose

SMILES: O=C1Nc2ccc(Cl)cc2[C@@](C#CC2CC2)(C(F)(F)F)O1 [efavirenz, reference compound]
- patients with drug levels below the expected range (low drug levels) [1, 12]: 85%

SMILES: NC(=O)CC[C@H](N)C(=O)O [Gln, glutamine]
- number of patients who did not increase their D4T levels [1, 8]: 3
- number of patients whose 3TC levels did not improve [1, 8]: 2
- number of patients whose 3TC levels improved with therapy [1, 8]: 2
- drug levels improved, all ARV drugs including NNRTI and PI [1, 9]: 57%
- mean percent improvement in antiretroviral drug levels [1, 10]: 14%
- peak paired NRTI levels improved [1, 10]: 64.3%
- intestinal permeability ([6]; 4 g/day): less worsening
- absorption of mannitol ([6]; 8 g/day): improved
- intestinal permeability ([6]; 8 g/day): stabilization

SMILES: Cc1cn([C@H]2C=C[C@@H](CO)O2)c(=O)[nH]c1=O [stavudine, reference compound]
- patients with drug levels below the expected range (low drug levels) ([1]; human, in vivo, 2 h): 20%
- number of patients whose level of this ARV drug improved with therapy ([1]; in vivo): seven

Second part, the compound after the results:

- patients with drug levels below the expected range, in words [1, 12]: All
SMILES: CC(C)c1nc(CN(C)C(=O)N[C@H](C(=O)N[C@@H](Cc2ccccc2)C[C@H](O)[C@H](Cc2ccccc2)NC(=O)OCc2cncs2)C(C)C)cs1 [ritonavir, reference compound]

- number of patients whose level of this ARV drug improved with therapy [1, 13]: six
SMILES: Cc1cn([C@H]2C[C@H](N=[N+]=[N-])[C@@H](CO)O2)c(=O)[nH]c1=O [AZT, zidovudine, reference compound]

- number of patients whose level of this ARV drug improved with therapy [1, 13]: 10
- concentration at 2 h [1, 14]: 2810 ng/mL
- concentration at 2 h [1, 15]: 1500 ng/mL
- patients with drug levels below the expected range, in words [1, 12]: All
SMILES: Nc1ccn([C@@H]2CS[C@H](CO)O2)c(=O)n1 [3TC, lamivudine, reference compound]

- patients with drug levels below the expected range, in words ([1]; in vivo): All
SMILES: CC(C)(C)NC(=O)[C@@H]1C[C@@H]2CCCC[C@@H]2CN1C[C@@H](O)[C@H](Cc1ccccc1)NC(=O)[C@H](CC(N)=O)NC(=O)c1ccc2ccccc2n1 [saquinavir, reference compound]

- concentration at 2 h [1, 14]: 737 ± 226 ng/mL
- concentration at 2 h [1, 15]: 397 ± 151 ng/mL
- patients with drug levels below the expected range, in words [1, 12]: All
SMILES: O=c1[nH]cnc2c1ncn2[C@H]1CC[C@@H](CO)O1 [ddI, didanosine, reference compound]

- patients with drug levels below the expected range (low drug levels) [1, 12]: 44%
SMILES: Cc1c(O)cccc1C(=O)N[C@@H](CSc1ccccc1)[C@H](O)CN1C[C@H]2CCCC[C@H]2C[C@H]1C(=O)NC(C)(C)C [nelfinavir, reference compound]
